Experimental data reported in ChEMBL document CHEMBL1212746, “Assessment of the in vitro kinetic activity of caspofungin against Candida glabrata” (2010).
Values after ≈ are worked out from the molar mass of the structure shown.

Tests used:
[1] = tested on: Nakaseomyces glabratus; assay: Antifungal activity against fluconazole-resistant Candida glabrata isolate 01 in presence of fluconazole by broth microdilution assay; assay type: functional
[2] = tested on: Nakaseomyces glabratus; assay: Antifungal activity against fluconazole-susceptible Candida glabrata isolate 03 in presence of fluconazole by broth microdilution assay
[3] = tested on: Nakaseomyces glabratus; assay: Antifungal activity against fluconazole-resistant Candida glabrata isolate 03 by broth microdilution assay; assay type: functional
[4] = tested on: Nakaseomyces glabratus; assay: Antifungal activity against Candida glabrata assessed as time to kill at 4 ug/ml; assay type: functional
[5] = tested on: Nakaseomyces glabratus; assay: Antifungal activity against Candida glabrata assessed as fungicidal activity by broth microdilution assay; assay type: functional
[6] = tested on: Nakaseomyces glabratus; assay: Antifungal activity against Candida glabrata assessed as time to kill at 1 ug/ml; assay type: functional
[7] = tested on: Nakaseomyces glabratus; assay: Antifungal activity against fluconazole-resistant Candida glabrata isolate 02 by broth microdilution assay; assay type: functional
[8] = tested on: Nakaseomyces glabratus; assay: Antifungal activity against fluconazole-resistant Candida glabrata isolate 05 in presence of amphotericin B by broth microdilution assay
[9] = tested on: Nakaseomyces glabratus; assay: Antifungal activity against Candida glabrata by broth microdilution assay; assay type: functional
[10] = tested on: Nakaseomyces glabratus; assay: Antifungal activity against fluconazole-resistant Candida glabrata isolate 05 by broth microdilution assay; assay type: functional
[11] = tested on: Nakaseomyces glabratus; assay: Antifungal activity against fluconazole-resistant Candida glabrata isolate 01 by broth microdilution assay; assay type: functional
[12] = tested on: Nakaseomyces glabratus; assay: Antifungal activity against fluconazole-resistant Candida glabrata isolate 04 in presence of fluconazole by broth microdilution assay; assay type: functional
[13] = tested on: Nakaseomyces glabratus; assay: Antifungal activity against fluconazole-resistant Candida glabrata isolate 02 in presence of voriconazole by broth microdilution assay
[14] = tested on: Nakaseomyces glabratus; assay: Antifungal activity against fluconazole-resistant Candida glabrata isolate 04 by broth microdilution assay; assay type: functional

Compound | fractional inhibitory concentration index (FICI) [1] | fractional inhibitory concentration index (FICI) [2] | MIC [3] [µg/mL] | Time [4] [h] | MFC [5] [µg/mL] | Time [6] [h] | MIC [7] [µg/mL] | fractional inhibitory concentration index (FICI) [8] | MIC50 [9] [µg/mL] | MIC90 [9] [µg/mL] | MIC [10] [µg/mL] | MIC [11] [µg/mL] | fractional inhibitory concentration index (FICI) [12] | fractional inhibitory concentration index (FICI) [13] | MIC [14] [µg/mL]
CC[C@H](C)C[C@H](C)CCCCCCCCC(=O)N[C@H]1C[C@@H](O)[C@@H](NCCN)NC(=O)[C@@H]2[C@@H](O)CCN2C(=O)[C@H]([C@H](O)CCN)NC(=O)[C@H]([C@H](O)[C@@H](O)c2ccc(O)cc2)NC(=O)[C@@H]2C[C@@H](O)CN2C(=O)[C@H]([C@@H](C)O)NC1=O [CASPOFUNGIN] | <0.5 | 0.185 | 0.5 (≈ 0.457 µM) | 2 | 4 | 4 | 0.25 (≈ 0.229 µM) | 1.06 | 0.5 (≈ 0.457 µM) | 2 (≈ 1.83 µM) | 0.25 (≈ 0.229 µM) | 0.5 (≈ 0.457 µM) | 0.5625 | 0.56 | 0.5 (≈ 0.457 µM)
OC(Cn1cncn1)(Cn1cncn1)c1ccc(F)cc1F [FLUCONAZOLE] |  |  | 2 (≈ 6.53 µM) |  | > 128 |  | 64 (≈ 209 µM) |  | 4 (≈ 13.1 µM) | 32 (≈ 104 µM) | 1 (≈ 3.27 µM) | 128 (≈ 418 µM) |  |  | 32 (≈ 104 µM)
C[C@@H](c1ncncc1F)[C@](O)(Cn1cncn1)c1ccc(F)cc1F [VORICONAZOLE] |  |  |  |  | > 32 |  |  |  | 0.125 (≈ 0.358 µM) | 1 (≈ 2.86 µM) |  |  |  |  | 
C[C@@H]1[C@H](O)[C@@H](C)/C=C/C=C/C=C/C=C/C=C/C=C/C=C/[C@H](O[C@@H]2O[C@H](C)[C@@H](O)[C@H](N)[C@@H]2O)C[C@@H]2O[C@](O)(C[C@@H](O)C[C@@H](O)[C@H](O)CC[C@@H](O)C[C@@H](O)CC(=O)O[C@H]1C)C[C@H](O)[C@H]2C(=O)O [AMPHOTERICIN B] |  |  |  |  | 1 |  |  |  | 0.5 (≈ 0.541 µM) | 1 (≈ 1.08 µM) |  |  |  |  | 
